Experimental data: US10251876B2, “Method for treating tumour, pharmaceutical composition and medicinal kit” (CHIA TAI TIANQING PHARMACEUTICAL GROUP CO., LTD., priority 2014, dated 2019)
Structures can show the parent of a compound that is named as a salt. Where two headings read alike, the source gives them in different places. Each block holds one compound with its values, some of them ahead of it.

Assays:
malignant tumor patients = assay: Preliminary and overall therapeutic effect in malignant tumor patients; type: in vivo, human; conditions: continuous administration for two weeks and rest for one week
Description: The malignant tumor patients those were diagnosed definitely and had failed standard treatment or lacking standard treatment were recruited for phase I study of tolerance and preliminary therapeutic effect. The tolerance was observed when patients were administered 5 mg or 10 mg of the capsules of dihydrochloride of Compound I once daily respectively for at least 2 cycles continuously, wherein each cycle was 28 days.
After the adjustment of the dosage regimen, the malignant tumor patients those were diagnosed definitely and had failed standard treatment or lacking standard treatment were recruited, continuous administrating for 2 weeks and resting for 1 week were applied, i.e., 3 weeks (21 days) was a treatment cycle, and the observation of tolerance was continuously performed and maintained at least 2 cycles (42 days), and the observation of therapeutic effects was performed at the same time.

[1] = Pharmacokinetics of single administration in solid tumour subjects; type: in vivo; conditions: human, plasma, single oral administration
Description: (§1) All the solid tumour subjects participating in the tolerance research in Example 3 were performed a monitor of plasma concentration to evaluate pharmacokinetic parameters of the capsule of Compound I dihydrochloride. • (1) Pharmacokinetics of Single Administration
After beginning the tests, the qualified subjects took the capsule of Compound I dihydrochloride once and performed pharmacokinetic studies of single administration.

[2] = Pharmacokinetics of continuous administration (2 weeks, rest 1 week) in solid tumour subjects; type: in vivo; conditions: human, plasma, oral
Description: as §1
The qualified subjects took the drug once and performed pharmacokinetic monitor of single administration. After subjecting to at least 7 days of a washout period, pharmacokinetic studies of continuous administration were performed. One treating cycle has continuous administration for 2 weeks and rest for 1 week, and continuous monitor were applied for at least 2 cycles. A total of 21 subjects in 3 dose groups (10 mg, 16 mg and 12 mg, respectively) continuously took the capsules of Compound I dihydrochloride, while performing the monitor of plasma concentration.

Structure (SMILES): COc1cc2c(Oc3ccc4[nH]c(C)cc4c3F)ccnc2cc1OCC1(N)CC1 [Compound I dihydrochloride, 1-[[[4-(4-fluoro-2-methyl-1H-indol-5-yl)oxy-6-methoxyquinolin-7-yl]oxy]methyl]cyclopropylamine dihydrochloride]
- therapeutic effects, overall (malignant tumor patients): various tumours can benefit

- AUC(0-inf) ([1]; 10 mg/person, n = 4, mean): 570 ng·h/mL
- AUC(0-t) ([1]; 10 mg/person, n = 4, mean): 327 ng·h/mL
- Cmax ([1]; 10 mg/person, n = 4, mean): 6.07 ng/mL
- MRT ([1]; 10 mg/person, n = 4, mean): 142 h
- Tmax ([1]; 10 mg/person, n = 4, mean): 6.75 h
- half-life ([1]; 10 mg/person, n = 4, mean, read-out: t1/2 (converted)): 88.9 h
- AUC(0-inf) ([1]; 12 mg/person, n = 11, mean): 1160 ng·h/mL
- AUC(0-t) ([1]; 12 mg/person, n = 11, mean): 938 ng·h/mL
- Cmax ([1]; 12 mg/person, n = 11, mean): 11.3 ng/mL
- MRT ([1]; 12 mg/person, n = 11, mean): 162 h
- Tmax ([1]; 12 mg/person, n = 11, mean): 8.73 h
- half-life ([1]; 12 mg/person, n = 11, mean, read-out: t1/2 (converted)): 92 h
- AUC(0-inf) ([1]; 16 mg/person, n = 4, mean): 1720 ng·h/mL
- AUC(0-t) ([1]; 16 mg/person, n = 4, mean): 1330 ng·h/mL
- Cmax ([1]; 16 mg/person, n = 4, mean): 16.1 ng/mL
- MRT ([1]; 16 mg/person, n = 4, mean): 163 h
- Tmax ([1]; 16 mg/person, n = 4, mean): 10 h
- half-life ([1]; 16 mg/person, n = 4, mean, read-out: t1/2 (converted)): 96.7 h
- half-life ([1]; read-out: half-life period (t1/2)): 80 to 100 h
- Cmax ([2]; 10 mg/person, n = 3, average (RSD %)): 64.9 ng/mL
- Cmax ([2]; 12 mg/person, n = 15, average (RSD %)): 67 ng/mL
- Cmax ([2]; 16 mg/person, n = 3, average (RSD %)): 93.1 ng/mL
Structure (SMILES): COc1cc2c(Oc3ccc4[nH]c(C)cc4c3F)ccnc2cc1OCC1(N)CC1 [Compound I, 1-[[[4-(4-fluoro-2-methyl-1H-indol-5-yl)oxy-6-methoxyquinolin-7-yl]oxy]methyl]cyclopropylamine]
